Measurements from publication PMC12181400, “Leveraging viral genome sequences and machine learning models for identification of potentially selective antiviral agents” (Communications Chemistry, 2025).
Counter-ions that a name gives are not always drawn. Like-named read-outs stand apart in the source and are kept apart here.

Assays:
[1] = system: SARS-CoV-2 Spike protein containing PPs, entry into HEK293-ACE2 cells; assay: microbe, parasite or virus in culture; type: cell-based; conditions: PP entry, HEK293-ACE2, 48 h, mean ± SD of two independent experiments; for IC50: Severe acute respiratory syndrome coronavirus 2, 11 concentrations
[2] = system: cell viability (tox21-car-antagonist-p1); conditions: cited from earlier work
[3] = system: cell viability (tox21-ap1-agonist-p1); conditions: cited from earlier work
[4] = system: cell viability (tox21-car-agonist-p1); conditions: cited from earlier work
[5] = system: cell viability (tox21-ar-mda-kb2-luc-antagonist-p2); conditions: cited from earlier work
[6] = system: cell viability (tox21-ar-mda-kb2-luc-agonist-p3); conditions: cited from earlier work
[7] = system: cell viability (tox21-are-bla-p1); conditions: cited from earlier work
[8] = curve rank −9 to 9, 0 = inactive, ref NCATS Tox21 public data browser

## N=c1ccn(C2OC(COP(=O)(O)O)C(O)C2O)c(=O)[nH]1 (stereo not shown) [NCGC00014029]
[1]
  efficacy: −76.63 ± 14.92%
  IC50: 1.31 ± 0.32 µM

## COc1ccc(-c2nc3ccccc3n2Cc2ccccc2)cc1COc1ccc(NC(C)=O)cc1 [NCGC00166392]
[1]
  efficacy: −83.25 ± 8.42%
  IC50: 1.37 µM

## COc1ccc(C(CNC(=O)c2ccc3ccccc3n2)N2CCCC2)cc1 (stereo not shown) [NCGC00622469]
[1]
  efficacy: −64.06 ± 9.68%
  IC50: 5.91 ± 7 µM

## O=C(Nc1nc(-c2ccc(F)cc2)cs1)c1c(F)cccc1F [NCGC00633127]
[1]
  efficacy: −67.42 ± 5.30%
  IC50: 4.59 ± 0.37 µM

## Nc1ccc(C(=O)Oc2ccccc2)c(O)c1 [Phenyl 4-aminosalicylate]
[2]; [8]
  tox21-car-antagonist-p1-viability (curve rank): 0
[3]; [8]
  tox21-ap1-agonist-p1-viability (curve rank): 0
[4]; [8]
  tox21-car-agonist-p1-viability (curve rank): 0
[5]; [8]
  tox21-ar-mda-kb2-luc-antagonist-p2-viability (curve rank): 0
[6]; [8]
  tox21-ar-mda-kb2-luc-agonist-p3-viability (curve rank): 0
[7]; [8]
  tox21-are-bla-p1-viability (curve rank): 0

## Nc1ccccc1C(=O)O [Anthranilic acid]
[2]; [8]
  tox21-car-antagonist-p1-viability (curve rank): 0
[3]; [8]
  tox21-ap1-agonist-p1-viability (curve rank): 0
[4]; [8]
  tox21-car-agonist-p1-viability (curve rank): 0
[5]; [8]
  tox21-ar-mda-kb2-luc-antagonist-p2-viability (curve rank): 0
[6]; [8]
  tox21-ar-mda-kb2-luc-agonist-p3-viability (curve rank): 0
[7]; [8]
  tox21-are-bla-p1-viability (curve rank): 0

## O=C(Cn1ccnc1[N+](=O)[O-])NCCO [Etandazole]
[2]
  tox21-car-antagonist-p1-viability (curve rank): 0
[3]
  tox21-ap1-agonist-p1-viability (curve rank): 0
[4]
  tox21-car-agonist-p1-viability (curve rank): 0
[5]
  tox21-ar-mda-kb2-luc-antagonist-p2-viability (curve rank): 0
[6]
  tox21-ar-mda-kb2-luc-agonist-p3-viability (curve rank): 0
[7]
  tox21-are-bla-p1-viability (curve rank): 0

## CC[N+]1(C)CCCC(OC(=O)C(O)(c2ccccc2)c2ccccc2)C1 (stereo not shown) [Pipenzolate bromide]
[2]
  tox21-car-antagonist-p1-viability (curve rank): 0
[3]
  tox21-ap1-agonist-p1-viability (curve rank): 0
[4]
  tox21-car-agonist-p1-viability (curve rank): 0
[5]
  tox21-ar-mda-kb2-luc-antagonist-p2-viability (curve rank): 0
[6]
  tox21-ar-mda-kb2-luc-agonist-p3-viability (curve rank): 0
[7]
  tox21-are-bla-p1-viability (curve rank): 0

## COc1cc(NS(=O)(=O)c2ccc(N)cc2)nc(OC)n1 [Sulfadimethoxine]
[2]
  tox21-car-antagonist-p1-viability (curve rank): 0
[3]
  tox21-ap1-agonist-p1-viability (curve rank): 0
[4]
  tox21-car-agonist-p1-viability (curve rank): 0
[5]
  tox21-ar-mda-kb2-luc-antagonist-p2-viability (curve rank): 0
[6]
  tox21-ar-mda-kb2-luc-agonist-p3-viability (curve rank): 0
[7]
  tox21-are-bla-p1-viability (curve rank): 0

## CC1Cc2ccccc2N1NC(=O)c1ccc(Cl)c(S(N)(=O)=O)c1 (stereo not shown) [Indapamide]
[2]
  tox21-car-antagonist-p1-viability (curve rank): 0
[3]
  tox21-ap1-agonist-p1-viability (curve rank): 0
[4]
  tox21-car-agonist-p1-viability (curve rank): 0
[5]
  tox21-ar-mda-kb2-luc-antagonist-p2-viability (curve rank): 0
[6]
  tox21-ar-mda-kb2-luc-agonist-p3-viability (curve rank): 0
[7]
  tox21-are-bla-p1-viability (curve rank): 0

## CSc1ccc(C(=O)c2[nH]c(=O)[nH]c2C)cc1 [Enoximone]
[2]
  tox21-car-antagonist-p1-viability (curve rank): 0
[3]
  tox21-ap1-agonist-p1-viability (curve rank): 0
[4]
  tox21-car-agonist-p1-viability (curve rank): 0
[5]
  tox21-ar-mda-kb2-luc-antagonist-p2-viability (curve rank): 0
[6]
  tox21-ar-mda-kb2-luc-agonist-p3-viability (curve rank): 0
[7]
  tox21-are-bla-p1-viability (curve rank): 0

## CC(C)(C(=O)c1cccnc1)c1cccnc1 [Metyrapone]
[2]
  tox21-car-antagonist-p1-viability (curve rank): 0
[3]
  tox21-ap1-agonist-p1-viability (curve rank): 0
[4]
  tox21-car-agonist-p1-viability (curve rank): 0
[5]
  tox21-ar-mda-kb2-luc-antagonist-p2-viability (curve rank): 0
[6]
  tox21-ar-mda-kb2-luc-agonist-p3-viability (curve rank): 0
[7]
  tox21-are-bla-p1-viability (curve rank): 0

## NC(=O)OCC(COC(N)=O)c1ccccc1 [Felbamate]
[2]; [8]
  tox21-car-antagonist-p1-viability (curve rank): 0
[3]; [8]
  tox21-ap1-agonist-p1-viability (curve rank): 0
[4]; [8]
  tox21-car-agonist-p1-viability (curve rank): 0
[5]; [8]
  tox21-ar-mda-kb2-luc-antagonist-p2-viability (curve rank): 0
[6]; [8]
  tox21-ar-mda-kb2-luc-agonist-p3-viability (curve rank): 0
[7]; [8]
  tox21-are-bla-p1-viability (curve rank): 0

## C#CCN(C)[C@H](C)Cc1ccccc1 [Selegiline hydrochloride]
[2]; [8]
  tox21-car-antagonist-p1-viability (curve rank): 0
[3]; [8]
  tox21-ap1-agonist-p1-viability (curve rank): 0
[4]; [8]
  tox21-car-agonist-p1-viability (curve rank): 0
[5]; [8]
  tox21-ar-mda-kb2-luc-antagonist-p2-viability (curve rank): 0
[6]; [8]
  tox21-ar-mda-kb2-luc-agonist-p3-viability (curve rank): 0
[7]; [8]
  tox21-are-bla-p1-viability (curve rank): 0

## NC(Cc1ccc(Cl)cc1)C(=O)O (stereo not shown) [Fenclonine]
[2]
  tox21-car-antagonist-p1-viability (curve rank): 0
[3]
  tox21-ap1-agonist-p1-viability (curve rank): 0
[4]
  tox21-car-agonist-p1-viability (curve rank): 0
[5]
  tox21-ar-mda-kb2-luc-antagonist-p2-viability (curve rank): 0
[6]
  tox21-ar-mda-kb2-luc-agonist-p3-viability (curve rank): 0
[7]
  tox21-are-bla-p1-viability (curve rank): 0

## CC[C@@H](CO)NC(=O)[C@@H]1C=C2c3cccc4c3c(cn4C)C[C@H]2N(C)C1 [Methysergide]
[2]; [8]
  tox21-car-antagonist-p1-viability (curve rank): 0
[3]; [8]
  tox21-ap1-agonist-p1-viability (curve rank): 0
[4]; [8]
  tox21-car-agonist-p1-viability (curve rank): 0
[5]; [8]
  tox21-ar-mda-kb2-luc-antagonist-p2-viability (curve rank): 0
[6]; [8]
  tox21-ar-mda-kb2-luc-agonist-p3-viability (curve rank): 0
[7]; [8]
  tox21-are-bla-p1-viability (curve rank): 0

## NS(=O)(=O)c1cc2c(cc1Cl)NC(C1CC3C=CC1C3)NS2(=O)=O (stereo not shown) [Cyclothiazide]
[2]; [8]
  tox21-car-antagonist-p1-viability (curve rank): 0
[3]; [8]
  tox21-ap1-agonist-p1-viability (curve rank): 0
[4]; [8]
  tox21-car-agonist-p1-viability (curve rank): 0
[5]; [8]
  tox21-ar-mda-kb2-luc-antagonist-p2-viability (curve rank): 0
[6]; [8]
  tox21-ar-mda-kb2-luc-agonist-p3-viability (curve rank): 0
[7]; [8]
  tox21-are-bla-p1-viability (curve rank): 0

## OC[C@H]1O[C@@H](Oc2ccc(O)cc2)[C@H](O)[C@@H](O)[C@@H]1O [Arbutin]
[2]; [8]
  tox21-car-antagonist-p1-viability (curve rank): 0
[3]; [8]
  tox21-ap1-agonist-p1-viability (curve rank): 0
[4]; [8]
  tox21-car-agonist-p1-viability (curve rank): 0
[5]; [8]
  tox21-ar-mda-kb2-luc-antagonist-p2-viability (curve rank): 0
[6]; [8]
  tox21-ar-mda-kb2-luc-agonist-p3-viability (curve rank): 0
[7]; [8]
  tox21-are-bla-p1-viability (curve rank): 0

## C[C@](N)(Cc1ccc(O)c(O)c1)C(=O)O [Methyldopa]
[2]
  tox21-car-antagonist-p1-viability (curve rank): 0
[3]
  tox21-ap1-agonist-p1-viability (curve rank): 0
[4]
  tox21-car-agonist-p1-viability (curve rank): 0
[5]
  tox21-ar-mda-kb2-luc-antagonist-p2-viability (curve rank): 0
[6]
  tox21-ar-mda-kb2-luc-agonist-p3-viability (curve rank): 0
[7]
  tox21-are-bla-p1-viability (curve rank): 0

## CC(=O)Nc1cc([As](=O)(O)O)ccc1O [Acetarsol]
[2]; [8]
  tox21-car-antagonist-p1-viability (curve rank): 0
[3]; [8]
  tox21-ap1-agonist-p1-viability (curve rank): 0
[4]; [8]
  tox21-car-agonist-p1-viability (curve rank): 0
[5]; [8]
  tox21-ar-mda-kb2-luc-antagonist-p2-viability (curve rank): 0
[6]; [8]
  tox21-ar-mda-kb2-luc-agonist-p3-viability (curve rank): 0
[7]; [8]
  tox21-are-bla-p1-viability (curve rank): 0

## CCOC(=O)c1cncn1[C@H](C)c1ccccc1 [Etomidate]
[2]; [8]
  tox21-car-antagonist-p1-viability (curve rank): 0
[3]; [8]
  tox21-ap1-agonist-p1-viability (curve rank): 0
[4]; [8]
  tox21-car-agonist-p1-viability (curve rank): 0
[5]; [8]
  tox21-ar-mda-kb2-luc-antagonist-p2-viability (curve rank): 0
[6]; [8]
  tox21-ar-mda-kb2-luc-agonist-p3-viability (curve rank): 0
[7]; [8]
  tox21-are-bla-p1-viability (curve rank): 0

## NC(=O)N1c2ccccc2C=Cc2ccccc21 [Carbamazepine]
[2]
  tox21-car-antagonist-p1-viability (curve rank): 0
[3]
  tox21-ap1-agonist-p1-viability (curve rank): 0
[4]
  tox21-car-agonist-p1-viability (curve rank): 0
[5]
  tox21-ar-mda-kb2-luc-antagonist-p2-viability (curve rank): 0
[6]
  tox21-ar-mda-kb2-luc-agonist-p3-viability (curve rank): 0
[7]
  tox21-are-bla-p1-viability (curve rank): 0

## CCN[C@H]1CN(CCCOC)S(=O)(=O)c2sc(S(N)(=O)=O)cc21 [Brinzolamide]
[2]
  tox21-car-antagonist-p1-viability (curve rank): 0
[3]
  tox21-ap1-agonist-p1-viability (curve rank): 0
[4]
  tox21-car-agonist-p1-viability (curve rank): 0
[5]
  tox21-ar-mda-kb2-luc-antagonist-p2-viability (curve rank): 0
[6]
  tox21-ar-mda-kb2-luc-agonist-p3-viability (curve rank): 0
[7]
  tox21-are-bla-p1-viability (curve rank): 0

## CC(C)(C)C(=O)OCOC(=O)[C@@H]1N2C(=O)[C@@H](NC(=O)[C@H](N)c3ccccc3)[C@H]2SC1(C)C [Pivampicillin]
[2]
  tox21-car-antagonist-p1-viability (curve rank): 0
[3]
  tox21-ap1-agonist-p1-viability (curve rank): 0
[4]
  tox21-car-agonist-p1-viability (curve rank): 0
[5]
  tox21-ar-mda-kb2-luc-antagonist-p2-viability (curve rank): 0
[6]
  tox21-ar-mda-kb2-luc-agonist-p3-viability (curve rank): 0
[7]
  tox21-are-bla-p1-viability (curve rank): 0

## COc1ccc(-c2csc3ncnc(N(C)CCO)c23)cc1 [NCGC00608516]
[1]
  efficacy: −93.10 ± 32.33%
  IC50: 11.7 ± 2.82 µM
